Among the data in PubChem BioAssay (NCI) are GI50 and TGI values, retold here.

Each structure is given as a SMILES string.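 Assay format: 96-well plates, 48-hour exposure. GI50: concentration for 50% inhibition of growth. TGI is the concentration that stops growth completely.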

In one assay the test system is UACC-62 melanoma. As to the kind of experiment: inhibition of tumour cell growth, NCI panel, 48 h.
For the compound `CCN(CC)c1ccc(-c2cc(-c3cc(OC)c(OC)c(OC)c3)nc(N3CCOCC3)c2C#N)cc1`, the GI50 is 379 nM and the TGI was found to be 2.55 µM.

For the compound `C=C(Br)C(C)(Br)CCC(Br)C(C)(C)Cl` (stereo not given), the TGI was determined as 40.7 µM.

`O=C(CCc1nnc2sc(-c3ccc(Cl)cc3Cl)nn12)c1nc2ncccc2[nH]1`: the GI50 was 1650 nM and the TGI was determined as 3.31 µM.

For `NS(=O)(=O)c1cc(Br)c(N=Nc2ccc(O)c3ncccc23)c(Br)c1`, the TGI is 68.8 µM.

As for `OCc1ccc(-c2ccc(-c3ccc(CO)s3)o2)s1`, the TGI is 0.154 µM.

With `O=C(Nc1ccc(Cl)cc1)c1cccc(NC2=C(Cl)C(=O)N(Cc3ccccc3)C2=O)c1`, the GI50 is 11000 nM and the TGI was found to be 22.9 µM.

On to `Cc1cc(/C=C/c2ccc3cc(N(C)C)ccc3[n+]2C)c(C)n1-c1ccccc1`, for which the GI50 was 277 nM and the TGI stood at 1.27 µM.

As for `CC[C@H](Nc1ncnc2nc[nH]c12)c1oc2ccccc2c(=O)c1-c1cccc(F)c1`, the GI50 was 10500 nM and the TGI turned out to be 69 µM.

The compound `COc1cc(NCc2ccc3oc(=O)c(-c4ccccc4)nc3c2)cc(OC)c1OC` displayed a TGI of more than 10 µM.

For a further assay, the system named is T-47D breast. The assay can be described thus: inhibition of tumour cell growth, NCI panel, 48 h.
For the compound `C[C@@H]1CCC2[C@@H](C)[C@@H](OCC(CO[C@H]3OC4O[C@@]5(C)CC[C@H]6[C@H](C)CCC([C@H]3C)[C@@]46OO5)OC(=O)CCC(=O)O)OC3O[C@@]4(C)CC[C@@H]1[C@]32OO4` (stereo not given in full), the GI50 is less than 10 nM and the TGI is more than 100 µM.

In turn, `COc1cc(OC)cc(-c2cc(=O)c3c(OC)c(OC)c(OC)c(OC)c3o2)c1` came in with a TGI of 64.1 µM.

Turning to `COc1cc2c(c(OC)c1OC)-c1ccc(OC)c(=O)cc1C(NC(=O)c1ccc(N=[N+]=[N-])cc1)CC2` (stereo not given), the TGI was more than 100 µM.

As to `O=C1OC(O)[C@@H]2[C@H]1[C@H]1CC[C@@H]2O1` (stereo not given in full), the GI50 is 15200 nM and the TGI was found to be 42.6 µM.

`COC(=O)C1=C(C)NC(C)=C(C(=O)OCCCN2CCC(c3ccccc3)(c3ccccc3)CC2)C1c1cccc([N+](=O)[O-])c1` (stereo not given) gave a TGI of 30.2 µM.

Regarding `N=Nc1c(OC(=O)Nc2cccc(Cl)c2)[nH]c2ccccc12`, the TGI came to 7.34 µM.

Take `Fc1cc2[nH]ncc2c2c3c(c(-c4cn[nH]c4)nc12)CCCC3`: the GI50 is 1260 nM and the TGI was more than 21.5 µM.

For `C=C1C(=O)O[C@H]2[C@H]1CC/C(COC(=O)c1c[nH]c3ccccc13)=C\CC[C@@]1(C)O[C@@H]21`, the GI50 is 401 nM and the TGI amounted to 2.26 µM.

Consider `CCN1CCN(c2nc(C)cc(N(CCNc3ccnc4cc(Cl)ccc34)Cc3ccc4c(c3)OCO4)n2)CC1`, for which the GI50 is 1730 nM and the TGI was 3.87 µM.

Turning to `CCN(CC)c1ccc(-c2cc(-c3cc(OC)c(OC)c(OC)c3)nc(N3CCOCC3)c2C#N)cc1`, the GI50 is 1290 nM and the TGI was more than 100 µM.

`C=C(Br)C(C)(Br)CCC(Br)C(C)(C)Cl` (stereo not given): the TGI is 44.1 µM.

With `O=C(CCc1nnc2sc(-c3ccc(Cl)cc3Cl)nn12)c1nc2ncccc2[nH]1`, the GI50 is 1470 nM and the TGI stood at 5.03 µM.

Consider `NS(=O)(=O)c1cc(Br)c(N=Nc2ccc(O)c3ncccc23)c(Br)c1`, for which the TGI is 98.8 µM.

Turning to `OCc1ccc(-c2ccc(-c3ccc(CO)s3)o2)s1`, the TGI came out at 7.59 µM.

Consider `O=C(Nc1ccc(Cl)cc1)c1cccc(NC2=C(Cl)C(=O)N(Cc3ccccc3)C2=O)c1`, for which the GI50 is 11400 nM and the TGI worked out at 78.5 µM.

As for `Cc1cc(/C=C/c2ccc3cc(N(C)C)ccc3[n+]2C)c(C)n1-c1ccccc1`, the GI50 is 63.5 nM and the TGI was 1.15 µM.

As to `CC[C@H](Nc1ncnc2nc[nH]c12)c1oc2ccccc2c(=O)c1-c1cccc(F)c1`, the GI50 is 8240 nM and the TGI is more than 100 µM.

`COc1cc(NCc2ccc3oc(=O)c(-c4ccccc4)nc3c2)cc(OC)c1OC` came in with a TGI of more than 10 µM.

The test system of a further assay is HCT-116 colon. The assay can be described thus: inhibition of tumour cell growth, NCI panel, 48 h.
For the compound `C[C@@H]1CCC2[C@@H](C)[C@@H](OCC(CO[C@H]3OC4O[C@@]5(C)CC[C@H]6[C@H](C)CCC([C@H]3C)[C@@]46OO5)OC(=O)CCC(=O)O)OC3O[C@@]4(C)CC[C@@H]1[C@]32OO4` (stereo not given in full), the GI50 is less than 10 nM and the TGI is 14.6 µM.

In turn, `COc1cc(OC)cc(-c2cc(=O)c3c(OC)c(OC)c(OC)c(OC)c3o2)c1` had a TGI of more than 100 µM.

Regarding `COc1cc2c(c(OC)c1OC)-c1ccc(OC)c(=O)cc1C(NC(=O)c1ccc(N=[N+]=[N-])cc1)CC2` (stereo not given), the TGI was 18.2 µM.

As for `O=C1OC(O)[C@@H]2[C@H]1[C@H]1CC[C@@H]2O1` (stereo not given in full), the GI50 is 42900 nM and the TGI was more than 100 µM.

Compound `COC(=O)C1=C(C)NC(C)=C(C(=O)OCCCN2CCC(c3ccccc3)(c3ccccc3)CC2)C1c1cccc([N+](=O)[O-])c1` (stereo not given) showed a TGI of 2.86 µM.

In the case of `N=Nc1c(OC(=O)Nc2cccc(Cl)c2)[nH]c2ccccc12`, the TGI came out at 14.1 µM.

Consider `Fc1cc2[nH]ncc2c2c3c(c(-c4cn[nH]c4)nc12)CCCC3`, for which the GI50 was 498 nM and the TGI is more than 37.5 µM.

Turning to `C=C1C(=O)O[C@H]2[C@H]1CC/C(COC(=O)c1c[nH]c3ccccc13)=C\CC[C@@]1(C)O[C@@H]21`, the GI50 was 193 nM and the TGI turned out to be 0.459 µM.

As to `CCN1CCN(c2nc(C)cc(N(CCNc3ccnc4cc(Cl)ccc34)Cc3ccc4c(c3)OCO4)n2)CC1`, the GI50 is 1380 nM and the TGI came out at 3.51 µM.

Turning to `CCN(CC)c1ccc(-c2cc(-c3cc(OC)c(OC)c(OC)c3)nc(N3CCOCC3)c2C#N)cc1`, the GI50 was 457 nM and the TGI turned out to be 21.1 µM.

For the compound `C=C(Br)C(C)(Br)CCC(Br)C(C)(C)Cl` (stereo not given), the TGI came out at 25 µM.

Take `O=C(CCc1nnc2sc(-c3ccc(Cl)cc3Cl)nn12)c1nc2ncccc2[nH]1`: the GI50 is 1300 nM and the TGI amounted to 2.65 µM.

As for `NS(=O)(=O)c1cc(Br)c(N=Nc2ccc(O)c3ncccc23)c(Br)c1`, the TGI is more than 100 µM.

Turning to `OCc1ccc(-c2ccc(-c3ccc(CO)s3)o2)s1`, the TGI was determined as 45.2 µM.

In the case of `O=C(Nc1ccc(Cl)cc1)c1cccc(NC2=C(Cl)C(=O)N(Cc3ccccc3)C2=O)c1`, the GI50 was 6290 nM and the TGI amounted to 19.7 µM.

For the compound `Cc1cc(/C=C/c2ccc3cc(N(C)C)ccc3[n+]2C)c(C)n1-c1ccccc1`, the GI50 was 90.8 nM and the TGI came out at 2.69 µM.

For the compound `CC[C@H](Nc1ncnc2nc[nH]c12)c1oc2ccccc2c(=O)c1-c1cccc(F)c1`, the GI50 was 25500 nM and the TGI was more than 100 µM.

`COc1cc(NCc2ccc3oc(=O)c(-c4ccccc4)nc3c2)cc(OC)c1OC` had a TGI of more than 10 µM.
